{"source": "the supplement of paper PMC10307832", "assay_in_all_cases": "relative viability (nuclei count vs DMSO), 5 days (fraction); higher = more cells survive", "key": {"NCI-H1623": {"tested_on": "NCI-H1623", "how_it_was_run": "(§1)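 Each reported value is a median over duplicate plates. It expresses relative viability: treated-well nuclei count divided by vehicle-well nuclei count. Lung cancer cell lines in 1536-well plates were dosed by pin tool a day after seeding, alone with one drug or with a fixed anchor-drug dose plus five library-drug doses (not always all listed) in √10 steps, and nuclei were counted after 5 days.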"}, "NCI-H1993": {"tested_on": "NCI-H1993", "how_it_was_run": "as §1"}, "NCI-H23": {"tested_on": "NCI-H23", "how_it_was_run": "as §1"}, "NCI-H522": {"tested_on": "NCI-H522", "how_it_was_run": "as §1"}, "NCI-H596": {"tested_on": "NCI-H596", "how_it_was_run": "as §1"}, "A549": {"tested_on": "A549", "how_it_was_run": "as §1"}, "Calu-6": {"tested_on": "Calu-6", "how_it_was_run": "as §1"}, "EBC-1": {"tested_on": "EBC-1", "how_it_was_run": "as §1"}, "IA-LM": {"tested_on": "IA-LM", "how_it_was_run": "as §1"}, "NCI-H1299": {"tested_on": "NCI-H1299", "how_it_was_run": "as §1"}, "NCI-H1648": {"tested_on": "NCI-H1648", "how_it_was_run": "as §1"}, "NCI-H1703": {"tested_on": "NCI-H1703", "how_it_was_run": "as §1"}}, "data": [{"smiles": "O=C(O)c1ccc(-c2c[nH]c3ncc(-c4ccccc4)cc23)cc1C1CCCC1", "note": "+ CCNC(=O)c1noc(-c2cc(C(C)C)c(O)cc2O)c1-c1ccc(CN2CCOCC2)cc1 [Luminespib] (partner 0.01 µM)", "values": [{"measurement": "relative viability", "setting": "NCI-H1623; first compound 0.04 µM", "result": 0.445}, {"measurement": "relative viability", "setting": "NCI-H1623; first compound 0.1265 µM", "result": 0.471}, {"measurement": "relative viability", "setting": "NCI-H1623; first compound 0.4 µM", "result": 0.512}, {"measurement": "relative viability", "setting": "NCI-H1623; first compound 1.265 µM", "result": 0.496}, {"measurement": "relative viability", "setting": "NCI-H1993; first compound 0.04 µM", "result": 0.912}, {"measurement": "relative viability", "setting": "NCI-H1993; first compound 0.1265 µM", "result": 0.831}, {"measurement": "relative viability", "setting": "NCI-H1993; first compound 0.4 µM", "result": 0.795}, {"measurement": "relative viability", "setting": "NCI-H1993; first compound 1.265 µM", "result": 0.612}, {"measurement": "relative viability", "setting": "NCI-H23; first compound 0.04 µM", "result": 0.224}, {"measurement": "relative viability", "setting": "NCI-H23; first compound 0.1265 µM", "result": 0.217}, {"measurement": "relative viability", "setting": "NCI-H23; first compound 0.4 µM", "result": 0.217}, {"measurement": "relative viability", "setting": "NCI-H23; first compound 1.265 µM", "result": 0.2}, {"measurement": "relative viability", "setting": "NCI-H522; first compound 0.04 µM", "result": 1.37}, {"measurement": "relative viability", "setting": "NCI-H522; first compound 0.1265 µM", "result": 1.19}, {"measurement": "relative viability", "setting": "NCI-H522; first compound 0.4 µM", "result": 0.998}, {"measurement": "relative viability", "setting": "NCI-H522; first compound 1.265 µM", "result": 1.03}, {"measurement": "relative viability", "setting": "NCI-H596; first compound 0.04 µM", "result": 1}, {"measurement": "relative viability", "setting": "NCI-H596; first compound 0.1265 µM", "result": 1.03}, {"measurement": "relative viability", "setting": "NCI-H596; first compound 0.4 µM", "result": 0.909}, {"measurement": "relative viability", "setting": "NCI-H596; first compound 1.265 µM", "result": 0.973}]}, {"smiles": "NC(=O)Nc1cc(-c2cccc(F)c2)sc1C(=O)N[C@H]1CCCNC1", "note": "[AZD7762] + O=C(c1cc(Cc2n[nH]c(=O)c3ccccc23)ccc1F)N1CCN(C(=O)C2CC2)CC1 [Olaparib] (partner 8 µM)", "values": [{"measurement": "relative viability", "setting": "A549; first compound 0.01 µM", "result": 0.37}, {"measurement": "relative viability", "setting": "A549; first compound 0.03162 µM", "result": 0.387}, {"measurement": "relative viability", "setting": "A549; first compound 0.1 µM", "result": 0.381}, {"measurement": "relative viability", "setting": "A549; first compound 0.3162 µM", "result": 0.481}, {"measurement": "relative viability", "setting": "A549; first compound 1 µM", "result": 0.155}, {"measurement": "relative viability", "setting": "Calu-6; first compound 0.01 µM", "result": 0.636}, {"measurement": "relative viability", "setting": "Calu-6; first compound 0.03162 µM", "result": 0.47}, {"measurement": "relative viability", "setting": "Calu-6; first compound 0.1 µM", "result": 0.375}, {"measurement": "relative viability", "setting": "Calu-6; first compound 0.3162 µM", "result": 0.166}, {"measurement": "relative viability", "setting": "Calu-6; first compound 1 µM", "result": 0.109}, {"measurement": "relative viability", "setting": "EBC-1; first compound 0.01 µM", "result": 0.848}, {"measurement": "relative viability", "setting": "EBC-1; first compound 0.03162 µM", "result": 0.915}, {"measurement": "relative viability", "setting": "EBC-1; first compound 0.1 µM", "result": 0.872}, {"measurement": "relative viability", "setting": "EBC-1; first compound 0.3162 µM", "result": 0.717}, {"measurement": "relative viability", "setting": "EBC-1; first compound 1 µM", "result": 0.451}, {"measurement": "relative viability", "setting": "IA-LM; first compound 0.01 µM", "result": 1.07}, {"measurement": "relative viability", "setting": "IA-LM; first compound 0.03162 µM", "result": 0.796}, {"measurement": "relative viability", "setting": "IA-LM; first compound 0.1 µM", "result": 0.891}, {"measurement": "relative viability", "setting": "IA-LM; first compound 0.3162 µM", "result": 0.655}, {"measurement": "relative viability", "setting": "IA-LM; first compound 1 µM", "result": 0.171}, {"measurement": "relative viability", "setting": "NCI-H1299; first compound 0.01 µM", "result": 1.02}, {"measurement": "relative viability", "setting": "NCI-H1299; first compound 0.03162 µM", "result": 1}, {"measurement": "relative viability", "setting": "NCI-H1299; first compound 0.1 µM", "result": 0.954}, {"measurement": "relative viability", "setting": "NCI-H1299; first compound 0.3162 µM", "result": 0.688}, {"measurement": "relative viability", "setting": "NCI-H1299; first compound 1 µM", "result": 0.312}, {"measurement": "relative viability", "setting": "NCI-H1648; first compound 0.01 µM", "result": 0.639}, {"measurement": "relative viability", "setting": "NCI-H1648; first compound 0.03162 µM", "result": 0.994}, {"measurement": "relative viability", "setting": "NCI-H1648; first compound 0.1 µM", "result": 0.751}, {"measurement": "relative viability", "setting": "NCI-H1648; first compound 0.3162 µM", "result": 0.934}, {"measurement": "relative viability", "setting": "NCI-H1648; first compound 1 µM", "result": 0.61}, {"measurement": "relative viability", "setting": "NCI-H1703; first compound 0.01 µM", "result": 0.305}, {"measurement": "relative viability", "setting": "NCI-H1703; first compound 0.03162 µM", "result": 0.214}, {"measurement": "relative viability", "setting": "NCI-H1703; first compound 0.1 µM", "result": 0.206}, {"measurement": "relative viability", "setting": "NCI-H1703; first compound 0.3162 µM", "result": 0.168}, {"measurement": "relative viability", "setting": "NCI-H1703; first compound 1 µM", "result": 0.12}, {"measurement": "relative viability", "setting": "NCI-H1993; first compound 0.01 µM", "result": 1.18}, {"measurement": "relative viability", "setting": "NCI-H1993; first compound 0.03162 µM", "result": 1.03}, {"measurement": "relative viability", "setting": "NCI-H1993; first compound 0.1 µM", "result": 1.12}, {"measurement": "relative viability", "setting": "NCI-H1993; first compound 0.3162 µM", "result": 1.42}, {"measurement": "relative viability", "setting": "NCI-H1993; first compound 1 µM", "result": 0.922}, {"measurement": "relative viability", "setting": "NCI-H23; first compound 0.01 µM", "result": 0.311}, {"measurement": "relative viability", "setting": "NCI-H23; first compound 0.03162 µM", "result": 0.287}, {"measurement": "relative viability", "setting": "NCI-H23; first compound 0.1 µM", "result": 0.255}, {"measurement": "relative viability", "setting": "NCI-H23; first compound 0.3162 µM", "result": 0.222}, {"measurement": "relative viability", "setting": "NCI-H23; first compound 1 µM", "result": 0.168}, {"measurement": "relative viability", "setting": "NCI-H522; first compound 0.01 µM", "result": 0.711}, {"measurement": "relative viability", "setting": "NCI-H522; first compound 0.03162 µM", "result": 0.631}, {"measurement": "relative viability", "setting": "NCI-H522; first compound 0.1 µM", "result": 0.676}, {"measurement": "relative viability", "setting": "NCI-H522; first compound 0.3162 µM", "result": 0.59}, {"measurement": "relative viability", "setting": "NCI-H522; first compound 1 µM", "result": 0.632}, {"measurement": "relative viability", "setting": "NCI-H596; first compound 0.01 µM", "result": 0.723}, {"measurement": "relative viability", "setting": "NCI-H596; first compound 0.03162 µM", "result": 0.631}, {"measurement": "relative viability", "setting": "NCI-H596; first compound 0.1 µM", "result": 0.609}, {"measurement": "relative viability", "setting": "NCI-H596; first compound 0.3162 µM", "result": 0.552}, {"measurement": "relative viability", "setting": "NCI-H596; first compound 1 µM", "result": 0.478}]}, {"smiles": "O=C(O)c1ccc(-c2c[nH]c3ncc(-c4ccccc4)cc23)cc1C1CCCC1", "note": "+ NC(=O)Nc1cc(-c2cccc(F)c2)sc1C(=O)N[C@H]1CCCNC1 [AZD7762] (partner 0.2 µM)", "values": [{"measurement": "relative viability", "setting": "NCI-H1648; first compound 0.04 µM", "result": 0.687}, {"measurement": "relative viability", "setting": "NCI-H1648; first compound 0.1265 µM", "result": 0.716}, {"measurement": "relative viability", "setting": "NCI-H1648; first compound 0.4 µM", "result": 0.82}, {"measurement": "relative viability", "setting": "NCI-H1703; first compound 0.1265 µM", "result": 0.0651}, {"measurement": "relative viability", "setting": "NCI-H1703; first compound 0.4 µM", "result": 0.148}, {"measurement": "relative viability", "setting": "NCI-H1703; first compound 1.265 µM", "result": 0.135}, {"measurement": "relative viability", "setting": "NCI-H1993; first compound 0.04 µM", "result": 0.776}, {"measurement": "relative viability", "setting": "NCI-H1993; first compound 0.1265 µM", "result": 0.814}, {"measurement": "relative viability", "setting": "NCI-H1993; first compound 0.4 µM", "result": 0.832}, {"measurement": "relative viability", "setting": "NCI-H1993; first compound 1.265 µM", "result": 0.615}, {"measurement": "relative viability", "setting": "NCI-H23; first compound 0.04 µM", "result": 0.218}, {"measurement": "relative viability", "setting": "NCI-H23; first compound 0.1265 µM", "result": 0.297}, {"measurement": "relative viability", "setting": "NCI-H23; first compound 0.4 µM", "result": 0.237}, {"measurement": "relative viability", "setting": "NCI-H23; first compound 1.265 µM", "result": 0.328}, {"measurement": "relative viability", "setting": "NCI-H522; first compound 0.04 µM", "result": 0.662}, {"measurement": "relative viability", "setting": "NCI-H522; first compound 0.1265 µM", "result": 0.896}, {"measurement": "relative viability", "setting": "NCI-H522; first compound 0.4 µM", "result": 0.785}, {"measurement": "relative viability", "setting": "NCI-H522; first compound 1.265 µM", "result": 0.882}, {"measurement": "relative viability", "setting": "NCI-H596; first compound 0.04 µM", "result": 1.05}, {"measurement": "relative viability", "setting": "NCI-H596; first compound 0.1265 µM", "result": 1.21}, {"measurement": "relative viability", "setting": "NCI-H596; first compound 0.4 µM", "result": 1.08}, {"measurement": "relative viability", "setting": "NCI-H596; first compound 1.265 µM", "result": 1.17}]}]}
